Measurements: US20250195469A1, “COMPANION DIAGNOSTICS AND STRATEGIES FOR TREATMENT WITH AN ARYL HYDROCARBON RECEPTOR AGONIST COMPOUND” (AZORA THERAPEUTICS, INC., priority 2022, published 2025)
Where two headings read alike, the source gives them in different places. Values belong to the compound of their own block, whether it stands above or below them.

Assays:
AhR = molecular target: T1, AhR (Homo sapiens, UniProt P35869); assay: Inhaled AhR antagonist combined with indirubin therapy; format: in vivo; details: two weeks, with nanoparticulate indirubin
T1 construct: takes a biopsy of the treated skin from this treated spot; from tissue; host or cells: human skin biopsy, epidermal cells
T1 sequence (P35869 11-848): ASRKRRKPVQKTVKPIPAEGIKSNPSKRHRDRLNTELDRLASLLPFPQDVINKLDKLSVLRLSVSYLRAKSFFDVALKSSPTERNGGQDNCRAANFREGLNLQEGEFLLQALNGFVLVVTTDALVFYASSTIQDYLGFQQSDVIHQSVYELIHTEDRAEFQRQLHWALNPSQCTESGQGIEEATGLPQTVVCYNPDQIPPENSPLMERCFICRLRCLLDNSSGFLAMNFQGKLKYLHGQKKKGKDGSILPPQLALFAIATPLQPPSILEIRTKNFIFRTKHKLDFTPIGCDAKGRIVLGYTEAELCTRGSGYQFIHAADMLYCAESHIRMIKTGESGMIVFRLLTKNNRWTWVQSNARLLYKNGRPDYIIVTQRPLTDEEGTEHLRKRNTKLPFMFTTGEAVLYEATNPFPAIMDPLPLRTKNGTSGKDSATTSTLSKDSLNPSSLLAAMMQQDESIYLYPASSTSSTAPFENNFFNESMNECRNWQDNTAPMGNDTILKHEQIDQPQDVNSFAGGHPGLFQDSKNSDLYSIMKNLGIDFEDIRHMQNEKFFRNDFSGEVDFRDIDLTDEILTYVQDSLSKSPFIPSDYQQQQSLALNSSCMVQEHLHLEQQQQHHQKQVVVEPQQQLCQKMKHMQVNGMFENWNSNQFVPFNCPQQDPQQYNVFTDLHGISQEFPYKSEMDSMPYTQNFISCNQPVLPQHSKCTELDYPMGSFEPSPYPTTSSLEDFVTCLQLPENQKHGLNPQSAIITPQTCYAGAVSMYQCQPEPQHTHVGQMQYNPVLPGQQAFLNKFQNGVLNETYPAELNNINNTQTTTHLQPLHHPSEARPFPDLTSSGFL
Text: During the course of therapy with a nanoparticulate form of synthetic indirubin for the treatment of gastritis, a patient complains of ad adverse event, in this case shortness of breath and difficulty doing physical exercise. The patient is responding well to therapy but the doctor is concerned about possible development of additional PAH-like symptoms. The doctor maintains the indirubin therapy but prescribes the patient an inhalable AhR antagonist, in this case inhaled 1-Methyl-N-[2-methyl-4-[2-(2-methylphenyl)diazenyl]phenyl-1H-pyrazole-5-carboxamide (CH223191) that is designed to reduce AhR signaling in the lung epithelium.

PBMCs = assay: EROD activity of PBMCs stimulated with AhR agonist; format: cell-based, human; details: patient PBMCs, 24 hours, compared to healthy normal PBMCs
Method: Prior to starting therapy with a topical AhR agonist for the treatment of pustular psoriasis, a blood sample is collected. PBMCs are processed and sent out fresh for stimulation with and without the AhR agonist FICZ. After 24 hours, EROD activity is measured. […] The ratio of stimulated to unstimulated EROD activity may be indicative of baseline AhR activity and responsiveness to AhR therapy. […] Based on the data, the patient's dermatologist prescribes the topical AhR agonist for the treatment of pustular psoriasis.

hamsters = details: cited from earlier work
mice = details: chronic dosing, only starting after 15 days of exposure; cited from earlier work
guinea pigs = details: cited from earlier work
ALT and AST = assay: Liver enzymes after indigo modified release tablet, with or without lead in dose; format: in vivo, human
Method: As such, a product label identified a clinical regiment whereby a lead in dose of 5 mg indigo is administered once daily for 2 consecutive days prior to beginning the 50 mg therapeutic dose.

CYP1A1 = tested on: CYP1A1
Method: (§1) A patient with Crohn's disease is given 50 mg of indirubin in an immediate release tablet once daily. A diagnostic is set to evaluate the mRNA levels of both CYP1A1 and CYP1A2 in the blood using RT-PCR of peripheral blood mononuclear cell mRNA every two weeks.

CYP1A2 = tested on: CYP1A2
Method: as §1

[1] = Method: A patient with pouchitis is being treated with an oral suspension containing 10 mg indirubin twice daily. Plasma samples are taken weekly during the first 6 weeks of therapy and sent out for PK analysis for indirubin levels. […] The physician reduces the dose to 2.5 mg once per day.
[2] = tested on: relapsing-remitting multiple sclerosis patients; details: low dose (0.6 mg/day); cited from earlier work
[3] = tested on: multiple sclerosis patients; details: Phase 3; cited from earlier work
[4] = Echocardiogram monitoring during linomide therapy (REMS); format: in vivo, human; details: oral tablet, after 6 months
Text: Based on the label of an orally administered tablet containing linomide, a patient must enroll in a risk evaluation and mitigation strategy (REMS). In the case of this drug, patients must comply with ongoing echocardiogram monitoring requirements. […] The prescribing physician evaluates the echocardiogram an decides the patient should be discontinued. The physician passes this information along to the REMS program by logging the data into a secure server. Subsequently the server alerts the patient and the prescribing pharmacy that the patient is no longer eligible to refill their linomide tablet prescription.

[5] = AhR agonist metabolism in blood microsomes, AhR-luciferase reporter readout; format: in vitro ADME, human; details: 10 nM, 24 hours
Method: Prior to beginning therapy with oral meisoindigo for the treatment of rheumatoid arthritis, a physician orders a diagnostic to assess ability of the subject to adequately metabolize meisoindigo. Blood microsomes are extracted from the subject and incubated in medium containing 10 nM meisoindigo for 24 hours. The microsomes are removed via ultra-centrifugation and the remaining medium is added to a reporter cell line (such as product IB06001 sold by Indigo Biosciences) that expresses luciferase behind the promoter for human CYP1A1 and which can detect AhR agonist activity. […] Based on the results of this diagnostic, the physician believes the patient has a defect making them a poor metabolizer of meisoindigo and recommends against the use of meisoindigo due to the possibility of development of adverse events.

[6] = Headaches with delayed release indirubin, omeprazole lead in dose; details: 20 mg delayed-release capsule before delayed release indirubin, first week
[7] = tested on: plaque psoriasis patients; details: phase 3, plaque psoriasis patients; cited from earlier work
[8] = 50 mg immediate release tablet once daily, after two weeks
[9] = two weeks after reduction to 10 mg every other day

SMILES: Cc1ccccc1N=Nc1ccc(NC(=O)c2ccnn2C)c(C)c1 [CH223191]
shortness of breath after combination therapy (AhR): no longer has shortness of breath

SMILES: O=Cc1c2c(cc3c1=Nc1ccccc1-3)=Nc1ccccc1-2 [FICZ, 6-formylindolo[3,2−b]carbazole]
EROD activity after stimulation (PBMCs): high EROD activity

SMILES: Clc1cc2c(cc1Cl)Oc1cc(Cl)c(Cl)cc1O2 [TCDD, 2,3,7,8-tetrachlorodibenzo-p-dioxin]
LD50 (hamsters): over 5000 μg/kg | mean arterial blood pressure (mice): increased | LD50 (guinea pigs): 1 µg/kg

SMILES: O=C1/C(=C2\Nc3ccccc3C2=O)Nc2ccccc21 [indigo]
patients with the ALT and AST increase (ALT and AST; 50 mg twice daily modified release tablet, 2 days): 50% | increase in ALT and AST (ALT and AST; 50 mg twice daily modified release tablet, 2 days following administration): 5 × | changes in ALT or AST levels (ALT and AST; lead in dose 5 mg once daily for 2 days before 50 mg therapeutic dose, 2 days following therapeutic dosing): did not produce any notable changes

increase of CYP1A1 mRNA in PBMCs (CYP1A1; [8]): 12 × | increase of CYP1A1 mRNA in PBMCs compared to baseline (CYP1A1; [9]): 15 × | increase of CYP1A2 mRNA in PBMCs (CYP1A2; [8]): 3 × | increase of CYP1A2 mRNA in PBMCs compared to baseline (CYP1A2; [9]): 6 × | plasma indirubin level ([1]; week 1, oral suspension 10 mg twice daily): 5 ng/mL | plasma indirubin level ([1]; week 2, oral suspension 10 mg twice daily): 25 ng/mL | plasma indirubin level ([1]; week 3, 2.5 mg once per day): 2 ng/mL | plasma indirubin level ([1]; week 4, 2.5 mg once per day): 3 ng/mL | plasma indirubin level ([1]; week 5, 2.5 mg once per day): 2 ng/mL | plasma indirubin level ([1]; week 6, 2.5 mg once per day): 3 ng/mL
SMILES: O=C1Nc2ccccc2/C1=C1/Nc2ccccc2C1=O [indirubin]

SMILES: CCN(C(=O)c1c(O)c2c(Cl)cccc2n(C)c1=O)c1ccccc1 [laquinimod]
trial's primary endpoint [2]: failed to meet the trial's primary endpoint

echocardiogram findings [4]: signs of valvar heart disease
SMILES: CN(C(=O)c1c(O)c2ccccc2n(C)c1=O)c1ccccc1 [linomide, linomide (roquinimex)]
toxicity leading to termination of development [3]: cardiovascular toxicity, specifically pleuritis, pericarditis, and chest pain

fraction of added compound metabolized ([5]; microsomes from a healthy normal individual): 99% | metabolism in presence of microsomes ([5]; patient blood microsomes): little to no meisoindigo was metabolized
SMILES: CN1C(=O)/C(=C2/C(=O)Nc3ccccc32)c2ccccc21 [meisoindigo]

effect of lead in dose on headaches [6]: reduce the development of headaches
SMILES: COc1ccc2[nH]c([S+]([O-])Cc3ncc(C)c(OC)c3C)nc2c1 (stereo not shown) [omeprazole]

SMILES: CC(C)c1c(O)cc(/C=C/c2ccccc2)cc1O [tapinarof]
patients who developed inflammation of the hair follicle (folliculitis) [7]: Over 20%
